Data: US20260364080A1, “PYRAZOLO-PYRIMIDINONE COMPOUNDS FOR USE IN METHODS OF INHIBITING WEE1 A KINASE” (Acrivon Therapeutics, Inc., priority 2023, published 2026)
Like-named read-outs stand apart in the source and are kept apart here.

Tests used:
[1] = biological target: T1, recombinant human Wee1A kinase (Homo sapiens, UniProt P30291); test: Wee1A kinase binding assay (LanthaScreen Eu time-resolved FRET)
T1 construct: full length Wee1 kinase was expressed by baculovirus in insect cells; purchased Invitrogen PV3817; host or cells: insect cells (baculovirus)
Protocol: This time resolved-FRET binding assay was performed in white 384-well low volume plates (Greiner, cat #784075), at room temperature in kinase buffer A (KBA; Invitrogen cat #PV3189), consisting of 50 mM HEPES-NaOH (pH 7.5), 0.01% Brij-35, 10 mM MgCl2, and 1 mM EGTA. 5 μL of compound (diluted in reaction buffer, to 1% DMSO) were added to various wells in the plate, followed by 5 μL each of recombinant human Wee1A kinase (full length Wee1 kinase was expressed by baculovirus in insect cells using a N-terminal GST tag (MW: 99.1 kDa) (Invitrogen cat #PV3817) and LanthaScreen Eu-anti-GST antibody (Invitrogen, cat #PV5594). After this, 5 μL of kinase tracer 178 (Invitrogen, cat #PV5593) was added to the plate and the plate was incubated for 60 minutes at room temperature. The final assay conditions in each well were: 30 nM tracer 178, 5 nM Wee1A kinase and 2 nM Eu-labeled antibody in total assay volume of 15 μL. An Envision 2104 (Perkin-Elmer) Plate Reader with the following time-resolve fluorescence setting was used for performing LanthaScreen kinase binding assay. • Excitation 320 nm (30 nm bandpass) • Kinase Tracer Emission 665 nm (10 nm bandpass) • LanthaScreen Eu-anti-Tag Antibody Emission 615 nm (10 nm bandpass) • Dichroic Mirror Instrument dependent • Delay Time 100 μs • Integration Time 200 μs
(§1) To calculate the emission ratio, the acceptor/tracer emission ([…]) was divided by the antibody/donor emission ([…]) and the average of duplicate measurement was used for calculations. Data plotting, analysis of binding, and curve fitting was done using Excel add-in XLfit version 5.5.0.5 (IDBS, Guildford, United Kingdom). […] “NT” means not tested.

[2] = biological target: T2, Myt1 kinase (recombinant PMYT-1) (Homo sapiens, UniProt Q99640); test: Myt1 kinase binding assay (LanthaScreen Eu Kinase Binding Assay); details: 3 nM tracer 178, 2.5 nM PMYT-1, 1 nM Eu-labeled antibody; read-out: Myt1 kinase Binding IC50
T2 construct: full length PMYT-1 was expressed by baculovirus in insect cells; purchased Invitrogen A30984; host or cells: insect cells (baculovirus)
T2 sequence (Q99640 1-499): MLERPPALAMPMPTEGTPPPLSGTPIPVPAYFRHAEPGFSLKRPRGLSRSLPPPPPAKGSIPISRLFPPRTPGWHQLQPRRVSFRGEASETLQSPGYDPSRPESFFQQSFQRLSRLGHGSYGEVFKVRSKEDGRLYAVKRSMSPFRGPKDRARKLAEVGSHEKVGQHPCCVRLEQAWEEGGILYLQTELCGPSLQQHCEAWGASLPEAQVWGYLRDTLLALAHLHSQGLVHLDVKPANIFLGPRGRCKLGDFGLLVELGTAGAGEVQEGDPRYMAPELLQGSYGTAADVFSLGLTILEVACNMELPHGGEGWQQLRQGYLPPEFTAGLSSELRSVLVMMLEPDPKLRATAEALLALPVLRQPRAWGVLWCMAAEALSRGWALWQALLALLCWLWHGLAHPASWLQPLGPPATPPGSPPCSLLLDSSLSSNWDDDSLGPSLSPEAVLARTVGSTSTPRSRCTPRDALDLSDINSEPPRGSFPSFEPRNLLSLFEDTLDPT
Protocol: as §1
We used a LanthaScreen Europium (Eu) Kinase Binding Assay to determine the binding affinities (IC50) of compounds to Myt1 kinase. […] “NT” designates that the compound was not tested in this assay.

[3] = biological target: T3, Wee1A kinase (CDK1 Tyr15 phosphorylation in ACHN renal cell carcinoma cells) (Homo sapiens, UniProt P30291); test: High-content imaging of pCdk1 Y15, Wee1A kinase target engagement in ACHN cells; type: cell-based
T3 construct: pCDK1 Tyr15 immunofluorescence read-out
Protocol: Each of an ACHN renal cell carcinoma cell line (ATCC) and a DAOY medulloblastoma cell line, and an A427 lung cancer line were cultured in Minimum Essential Medium Eagle supplemented with 10% fetal calf serum (Sigma), 1% Penicillin-Streptomycin and 10 mM HEPES buffer (HyClone). Cell cultures were kept in a humidified incubator at 37 °C and 5% CO2. Cells were routinely tested for Mycoplasma contamination.
For target engagement assessment of Wee1A kinase inhibition, high-content imaging of ACHN renal cell carcinoma cells was used for quantification of CDK1 phosphorylated on tyrosine 15 by immunofluorescence (“IF”). 20,000 cells per well were seeded in tissue culture treated 96 well plates and treated with compounds at concentrations ranging from 7 to 5,000 nM or from 0.3 to 200 nM for 4h. Cells were fixated for 15 minutes in 4% paraformaldehyde solution, washed in PBS and permeabilized using 0.2% Triton X-100. Blocking was performed for 1 h at RT using Blocker FL Fluorescent Blocking Buffer (Thermo Scientific), thereafter cells were incubated with primary antibody (rabbit anti-pCDK1 Y^15, #4539, Cell Signaling Technology) at 4 °C ON. Alexa Fluor Plus 647 labelled goat anti-rabbit (A32733, Thermo Scientific) was used as secondary antibody. After washing in PBS, nuclei were stained with DAPI solution for 10 min at RT, protected from light. Cells were imaged using an ImageXpress Pico automated imaging system and CellReporter Xpress software (Molecular Devices). The percentage of cells with nuclear positivity for pCdk1 Y^15 compared to DMSO control was determined for each well and drug dose response curves and EC50 values were calculated and visualized using GraphPad Prism. Target engagement for Wee1A kinase can also be measured using the same AlphaLISA assay in OVCAR3 cells, an ovarian cancer cell line. NIH:OVCAR-3 (OVCAR3) cells are cultured in RPMI-1640 medium supplemented with 0.01 mg/ml insulin, 20% FBS, 1% Penicillin-Streptomycin and 10 mM HEPES buffer. 14,000 cells per well are seeded into 96 well tissue culture plates in full medium. Twenty-four hours post seeding, cells are treated with compound for 4 hours at concentrations ranging from 0.017 nM to 1000 nM.

[4] = 30 nM tracer 178, 5 nM Wee1A kinase, 2 nM Eu-labeled antibody, 60 minutes at room temperature, read-out: Wee1A kinase Binding IC50
[5] = 4 h treatment, nuclear positivity for pCdk1 Y15 vs DMSO control, read-out: CDK1 Tyr15 Phosphorylation EC50
[6] = read-out: CDK1 Tyr15 Phosphorylation EC50, 4 h treatment, nuclear positivity for pCdk1 Y15 vs DMSO control

T3 sequence (P30291 whole entry): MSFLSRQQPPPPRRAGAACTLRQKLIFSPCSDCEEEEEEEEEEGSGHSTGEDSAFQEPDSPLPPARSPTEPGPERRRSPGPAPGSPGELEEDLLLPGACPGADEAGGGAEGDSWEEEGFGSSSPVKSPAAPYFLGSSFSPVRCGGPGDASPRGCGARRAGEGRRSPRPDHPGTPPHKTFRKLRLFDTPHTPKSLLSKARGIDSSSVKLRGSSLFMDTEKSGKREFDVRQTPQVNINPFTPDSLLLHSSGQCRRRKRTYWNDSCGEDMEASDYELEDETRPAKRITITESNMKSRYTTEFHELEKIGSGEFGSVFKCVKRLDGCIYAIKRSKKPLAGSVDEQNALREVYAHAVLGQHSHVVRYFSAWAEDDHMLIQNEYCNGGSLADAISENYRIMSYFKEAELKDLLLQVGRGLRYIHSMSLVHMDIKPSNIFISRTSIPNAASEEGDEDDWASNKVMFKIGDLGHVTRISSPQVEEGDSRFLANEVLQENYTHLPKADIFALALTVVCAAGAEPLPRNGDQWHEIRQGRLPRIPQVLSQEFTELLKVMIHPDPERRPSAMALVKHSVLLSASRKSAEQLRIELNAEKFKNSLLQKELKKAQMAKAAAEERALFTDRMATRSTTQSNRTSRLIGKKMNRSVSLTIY
T1 sequence (P30291 whole entry): as above

SMILES	IC50 [1, 4] [nM]	IC50 [2] [nM]	EC50 [3, 5] [nM]	IC50 [1] [nM]	EC50 [3, 6] [nM]
C=CCn1c(=O)c2cnc(Nc3ccc4c(cnn4C)c3)nc2n1-c1cccc(OC2CCN(C3COC3)CC2)n1 [Compound 349, 2-allyl-6-((1-methyl-1H-indazol-5-yl)amino)-1-(6-((1-(oxetan-3-yl)piperidin-4-yl)oxy)pyridin-2-yl)-1,2-dihydro-3H-pyrazolo[3,4-d]pyrimidin-3-one]	< 10		< 100		
C=CCn1c(=O)c2cnc(Nc3ccc(Cl)cc3)nc2n1-c1cccc(N(C)[C@H]2CCCN(C)C2)n1 [Compound 164, 1-(6-{[(S)-1-methyl-3-piperidyl]-N-methylamino}-2-pyridyl)-2-allyl-6-(p-chlorophenylamino)-1,2-dihydro-3H-1,2,5,7-tetraazainden-3-one]	10 to 100	> 500			
C=CCn1c(=O)c2cnc(Nc3cnn(C)c3)nc2n1-c1cccc(OC2CCNCC2)c1 [Compound 224, 2-allyl-6-(1-methyl-4-pyrazolylamino)-1-[m-(4-piperidyloxy)phenyl]-1,2-dihydro-3H-1,2,5,7-tetraazainden-3-one]	< 10		> 1000		
C=CCn1c(=O)c2cnc(Nc3ccnc(C)c3)nc2n1-c1cccc(OC2CCNCC2)c1 [Compound 222, 2-allyl-6-(2-methyl-4-pyridylamino)-1-[m-(4-piperidyloxy)phenyl]-1,2-dihydro-3H-1,2,5,7-tetraazainden-3-one]	< 10		> 1000		
C=CCn1c(=O)c2cnc(Nc3ccc(Cl)cc3)nc2n1-c1cccc(O[C@H]2CCCN(C)C2)n1 [Compound 162, 6-[(4-chlorophenyl)amino]-1-(6-{[(3S)-1-methylpiperidin-3-yl]oxy}pyridin-2-yl)-2-(prop-2-en-1-yl)-1H,2H,3H-pyrazolo[3,4-d]pyrimidin-3-one]	10 to 100	100 to 500			
C=CCn1c(=O)c2cnc(Nc3cnn(C)c3)nc2n1-c1cccc(OC2CCN(C)CC2)c1 [Compound 221, 2-allyl-1-[m-(1-methyl-4-piperidyloxy)phenyl]-6-(1-methyl-4-pyrazolylamino)-1,2-dihydro-3H-1,2,5,7-tetraazainden-3-one]	< 10		500 to 1000		
CCn1c(=O)c2cnc(Nc3ccc4c(cnn4C)c3)nc2n1-c1cccc(N(C)C2CCNCC2)n1 [Compound 286, 1-[6-(N-methyl-N-4-piperidylamino)-2-pyridyl]-2-ethyl-6-(1-methyl-1H-indazol-5-ylamino)-1,2-dihydro-3H-1,2,5,7-tetraazainden-3-one]				< 10	> 1000
C=CCn1c(=O)c2cnc(Nc3ccc4c(cnn4C)c3)nc2n1-c1cccc(OC2CCN(C)C(C)C2)n1 [Compound 402, rel-2-allyl-1-(6-(((2R,4R)-1,2-dimethylpiperidin-4-yl)oxy)pyridin-2-yl)-6-((1-methyl-1H-indazol-5-yl)amino)-1,2-dihydro-3H-pyrazolo[3,4-d]pyrimidin-3-one]			< 100		
C=CCn1c(=O)c2cnc(Nc3ccc4cnn(C)c4c3)nc2n1-c1cccc(OC2CCNCC2)n1 [Compound 359, 2-allyl-6-((1-methyl-1H-indazol-6-yl)amino)-1-(6-(piperidin-4-yloxy)pyridin-2-yl)-1,2-dihydro-3H-pyrazolo[3,4-d]pyrimidin-3-one]	< 10		< 100		
C=CCn1c(=O)c2cnc(Nc3ccnc(C)c3)nc2n1-c1cccc(OC2CCN(C)CC2)c1 [Compound 219, 2-allyl-1-[m-(1-methyl-4-piperidyloxy)phenyl]-6-(2-methyl-4-pyridylamino)-1,2-dihydro-3H-1,2,5,7-tetraazainden-3-one]	< 10		100 to 500		

Second part, the compound after the results:

IC50 [1, 4] [nM]	IC50 [2] [nM]	EC50 [3, 5] [nM]	IC50 [1] [nM]	EC50 [3, 6] [nM]	SMILES
< 10	20 to 100				C=CCn1c(=O)c2cnc(Nc3ccc4ncccc4c3)nc2n1-c1cccc(OC2CCN(C)CC2)n1 [Compound 325, 2-allyl-1-[6-(1-methyl-4-piperidyloxy)-2-pyridyl]-6-(6-quinolylamino)-1,2-dihydro-3H-1,2,5,7-tetraazainden-3-one]
< 10	20 to 100				C=CCn1c(=O)c2cnc(Nc3ccc(OC)nc3)nc2n1-c1cccc(OC2CCNCC2)n1 [Compound 251, 2-allyl-6-(6-methoxy-3-pyridylamino)-1-[6-(4-piperidyloxy)-2-pyridyl]-1,2-dihydro-3H-1,2,5,7-tetraazainden-3-one]
10 to 100					C=CCn1c(=O)c2cnc(Nc3cnn(C)c3)nc2n1-c1cccc(O[C@@H]2C[C@@H]3CC[C@H]2CN3C)n1 [Compound 295, 6-[(1-methyl-1H-pyrazol-4-yl)amino]-1-(6-{[(1S,4S,5R)-2-methyl-2-azabicyclo[2.2.2]octan-5-yl]oxy}pyridin-2-yl)-2-(prop-2-en-1-yl)-1H,2H,3H-pyrazolo[3,4-d]pyrimidin-3-one]
			< 10	> 1000	C=CCn1c(=O)c2cnc(Nc3ccc4c(cnn4C)c3)nc2n1-c1cccc(N(C)C2CCN(C)CC2)c1 [Compound 225, 1-{m-[N-methyl (1-methyl-4-piperidyl)amino]phenyl}-2-allyl-6-(1-methyl-1H-indazol-5-ylamino)-1,2-dihydro-3H-1,2,5,7-tetraazainden-3-one]
10 to 100	> 500				C=CCn1c(=O)c2cnc(Nc3ccc(Cl)cc3)nc2n1-c1cccc(N(C)[C@@H]2CCCN(C)C2)n1 [Compound 163, (R)-2-allyl-6-((4-chlorophenyl)amino)-1-(6-(methyl(1-methylpiperidin-3-yl)amino)pyridin-2-yl)-1,2-dihydro-3H-pyrazolo[3,4-d]pyrimidin-3-one]
10 to 100					C=CCn1c(=O)c2cnc(Nc3cnn(C)c3)nc2n1-c1cccc(O[C@H]2C[C@@H]3CC[C@H]2CN3C)n1 [Compound 294, 6-[(1-methyl-1H-pyrazol-4-yl)amino]-1-(6-{[(1S,4S,5S)-2-methyl-2-azabicyclo[2.2.2]octan-5-yl]oxy}pyridin-2-yl)-2-(prop-2-en-1-yl)-1H,2H,3H-pyrazolo[3,4-d]pyrimidin-3-one]
